From article PMC6150229, “Simultaneous Determination of Twenty-Five Compounds in Rat Plasma Using Ultra-High Performance Liquid Chromatography-Polarity Switching Tandem Mass Spectrometry and Its Application to a Pharmacokinetic Study” (Molecules : A Journal of Synthetic Chemistry and Natural …, 2017)
Where two headings read alike, the source gives them in different places.

How the values were obtained:
[1] = male, Sprague-Dawley, rat, in vivo, po, 8 g/kg
Protocol: (§1) Twelve male Spargue-Dawley rats (200 ± 20 g) were supplied by Vital River Laboratory Animal Technology Co. Ltd. (Beijing, China). […] The rats were acclimated under a humidity (50%) controlled room at 22–25 °C with a 12 h light-dark cycle, and standard diet and water were provided ad libitum for one week.
(§2) Afterwards, all rats were randomly divided into two groups, namely sham and model groups. The myocardial ischemia model was simulated by left anterior descending (LAD) coronary artery ligation [12], whilst the rats belonging to the sham group received the similar surgery, however no actual ligation in LAD. All animals were fasted overnight with free access to water prior to oral dosing. Aliquots (250 μL) of blood were sampled at 0 (pre-dose), 0.08, 0.25, 0.5, 0.75, 1, 1.5, 2, 4, 6, 8, 12, and 24 h from venous around eye socket into heparinized tubes after a single oral dosing of 8.0 g/kg of QSKL and the collected blood samples were immediately subjected for 4000 rpm centrifugation for 10 min at 4 °C to harvest the plasma samples. Each 100 μL aliquot of plasma sample was transferred into another Eppendorf tube and stored at −80 °C till use.
(§3) When analysis, 300 μL of internal standards (200 ng/mL for either internal standard) fortified ACN, corresponding to three volumes of plasma, was spiked into each thawed plasma sample and mixed thoroughly. Then, the resulting samples were processed as those calibration samples.
(§4) Individual animal plasma concentrations versus time dataset were subjected to a non-compartmental pharmacokinetic analysis using WinNonlin software (ver. 6.4, Pharsight Corp., Sunnyvale, CA, USA). The pharmacokinetic parameters of each analyte including the maximum plasma concentration (Cmax), the time at which Cmax was achieved (Tmax), the terminal elimination half-life (t1/2), and the area under the plasma concentration versus time curve (AUC0→t along with AUC0→∞) were calculated. Moreover, Lz corresponding to the ratio of the dosage and AUC0→∞, as well as mean residence time (MRT) that was defined as the ratio of the area under the first moment curve from time 0 to infinity (AUMC0→∞/AUC0→∞) was also calculated. All results are expressed as mean ± SD. Comparisons regarding the pharmacokinetic parameters were carried out between sham and model groups using Student’s t-test, and p values less than 0.05 were considered to be significant.

[2] = in vivo; conditions: male, Sprague-Dawley, rat, po, 8 g/kg; for AUC(0-t): AUC0–t; for AUC(0-inf): AUC0–∞
Protocol: as §1, §2, §3, §4

[3] = Pharmacokinetic study in sham and myocardial ischemia model rats after a single oral dose of QSKL (UHPLC-psMS/MS of plasma, non-compartmental analysis); conditions: QSKL-treated plasma samples, sham and model rats, single oral dose 8.0 g/kg
Protocol: as §1, §2, §3, §4

[4] = model group (MG, myocardial ischemia) rats, oral administration of QSKL, plasma, mean ± SD, n = 6
[5] = sham group (SG) rats, oral administration of QSKL, plasma, mean ± SD, n = 6
[6] = t1/2, model group (MG, myocardial ischemia) rats, oral administration of QSKL, plasma, mean ± SD, n = 6
[7] = t1/2, sham group (SG) rats, oral administration of QSKL, plasma, mean ± SD, n = 6

Row | AUC0–t [1] | MRT [1] | AUC(0-t) [2] | AUC(0-inf) [2] | MRT [2] | half-life ([2]; t1/2) | Tmax [2] | Structure (SMILES) | AUC0–∞ [1] | Cmax [2] | also measured
1 | – | – | – | – | – | – | – | COC[C@@]12CC[C@H](OC)[C@]34C(C([C@H](OC)[C@H]13)[C@]1(OC(C)=O)[C@H]3[C@@H](OC(=O)c5ccccc5)[C@](O)(C[C@H]34)[C@@H](OC)[C@@H]1O)N(C)C2 [hypaconitine] | – | – | AUC(0-t) [2, 4]: 0.567 ± 0.26 ng·h/mL; AUC(0-t) [2, 5]: 0.824 ± 0.249 ng·h/mL; AUC(0-inf) [2, 4]: 0.552 ± 0.148 ng·h/mL; AUC(0-inf) [2, 5]: 0.967 ± 0.303 ng·h/mL; Cmax [2, 4]: 0.156 ± 0.134 ng/mL; Cmax [2, 5]: 0.101 ± 0.0328 ng/mL; MRT [2, 4]: 11.9 ± 3.73 h; MRT [2, 5]: 11.7 ± 2.83 h; Tmax [2, 4]: 1.54 ± 0.71 h; Tmax [2, 5]: 2.08 ± 1.6 h; half-life [2, 6]: 7.45 ± 1.18 h; half-life [2, 7]: 8.67 ± 1.72 h; distribution in rat plasma (quantifiable or not) [3]: quantifiable in most samples
2 | – | – | – | – | – | – | – | O=C(/C=C/c1ccc(O[C@@H]2O[C@H](CO)[C@@H](O)[C@H](O)[C@H]2O)cc1)c1ccc(O)cc1O [isoliquiritin] | – | – | AUC(0-t) [2, 4]: 1.58 ± 0.493 ng·h/mL; AUC(0-t) [2, 5]: 1.39 ± 0.36 ng·h/mL; AUC(0-inf) [2, 4]: 1.86 ± 0.632 ng·h/mL; AUC(0-inf) [2, 5]: 1.64 ± 0.474 ng·h/mL; Cmax [2, 4]: 0.85 ± 0.761 ng/mL; Cmax [2, 5]: 0.389 ± 0.167 ng/mL; MRT [2, 4]: 10.2 ± 4.65 h; MRT [2, 5]: 10.5 ± 3.13 h; Tmax [2, 4]: 0.43 ± 0.36 h; Tmax [2, 5]: 0.36 ± 0.31 h; half-life [2, 6]: 8.28 ± 3.4 h; half-life [2, 7]: 6.26 ± 0.976 h; distribution in rat plasma (quantifiable or not) [3]: quantifiable in most samples
3 | 2.53 ± 0.662 ng·h/mL | 9.83 ± 4.37 h | 2.11 ± 1.73 ng·h/mL | 2.22 ± 1.98 ng·h/mL | 8.48 ± 1.07 h | 3.9 ± 1.03 h | – | O=C1C[C@@H](c2ccc(O)cc2)Oc2cc(O)ccc21 [liquiritigenin] | 2.81 ± 0.98 ng·h/mL | 0.347 ± 0.276 ng/mL | –
4 | 7.66 ± 2.60 ng·h/mL | 10.2 ± 5.77 h | 6.01 ± 1.52 ng·h/mL | 7.37 ± 2.08 ng·h/mL | 10.3 ± 2.3 h | 5.76 ± 0.36 h | 0.29 ± 0.17 h | O=C1C[C@@H](c2ccc(O[C@@H]3O[C@H](CO)[C@@H](O)[C@H](O)[C@H]3O)cc2)Oc2cc(O)ccc21 [liquiritin] | 9.14 ± 4.02 ng·h/mL | – | –
5 | 0.493 ± 0.147 ng·h/mL | 29.4 ± 17.5 h | 0.406 ± 0.055 ng·h/mL | 1.06 ± 0.47 ng·h/mL | 50.5 ± 26.9 h | 36.5 ± 16.8 h | 0.5 ± 0.33 h | O=c1cc(-c2ccc(O)c(O)c2)oc2cc(O[C@@H]3O[C@H](CO)[C@@H](O)[C@H](O)[C@H]3O)cc(O)c12 [luteoloside] | 0.869 ± 0.272 ng·h/mL | – | –
6 | 4.54 ± 1.58 ng·h/mL | – | 3.62 ± 0.763 ng·h/mL | 5.58 ± 2.56 ng·h/mL | 18.2 ± 2.76 h | 10.7 ± 1.2 h | 8 h | Cc1coc2c1C(=O)C(=O)c1c-2ccc2c(C)cccc12 [tanshinone I] | – | 0.297 ± 0.115 ng/mL | –

Row | Structure (SMILES) | AUC0–t [1] | MRT [1] | AUC(0-t) [2] | AUC(0-inf) [2] | MRT [2] | half-life ([2]; t1/2) | Tmax [2] | AUC0–∞ [1] | Cmax [2] | also measured
7 | C[C@H]1COC2=C1C(=O)C(=O)c1c2ccc2c1CCCC2(C)C [cryptotanshinone] | 10.2 ± 2.21 ng·h/mL | 25.6 ± 20.1 h | 8.77 ± 2.26 ng·h/mL | 12 ± 5.01 ng·h/mL | 19.3 ± 6.01 h | 12.2 ± 5.2 h | – | 16.4 ± 8.86 ng·h/mL | 0.898 ± 0.29 ng/mL | –
8 | Cc1cccc2c3c(ccc12)C1=C(C(=O)C3=O)[C@@H](C)CO1 [dihydrotanshinone I] | 4.67 ± 2.23 ng·h/mL | 14.8 ± 9.29 h | 4.99 ± 2.18 ng·h/mL | 4.47 ± 0.864 ng·h/mL | 8.22 ± 1.2 h | 3.9 ± 0.858 h | 8 h | 5.98 ± 5.34 ng·h/mL | 0.618 ± 0.25 ng/mL | –
9 | C=C[C@H]1[C@H](O[C@@H]2O[C@H](CO)[C@@H](O)[C@H](O)[C@H]2O)OC=C2C(=O)OCC[C@H]21 [sweroside] | 247 ± 58.0 ng·h/mL | – | 210 ± 75.7 ng·h/mL | 294 ± 94.2 ng·h/mL | – | – | 1.58 ± 1.31 h | 281 ± 53.4 ng·h/mL | 28.9 ± 14.3 ng/mL | –
